{"source": "patent US20250230193A1", "about": "“CYCLIC COMPOUND HAVING SELECTIVE KRAS INHIBITORY EFFECT ON HRAS AND NRAS” (CHUGAI SEIYAKU KABUSHIKI KAISHA, priority 2022, published 2025)", "key": {"[1]": {"target": "GDP-bound HRAS wild-type protein (Homo sapiens, UniProt P01112)", "sequence (P01112 whole entry)": "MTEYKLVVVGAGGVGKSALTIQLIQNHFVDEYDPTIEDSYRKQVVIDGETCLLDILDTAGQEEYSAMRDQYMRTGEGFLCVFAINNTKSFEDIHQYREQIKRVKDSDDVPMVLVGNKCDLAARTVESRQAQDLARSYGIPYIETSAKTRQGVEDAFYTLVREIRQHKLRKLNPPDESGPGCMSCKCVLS", "experiment": "Binding to HRAS by surface plasmon resonance (SPR), Single Cycle Kinetics", "settings": "for HRAS/KRAS (ratio of KD value with respect to GDP-bound HRAS wild-type protein to KD value with respect to KRAS): class symbols; for HRAS/KRAS (ratio of KD value with respect to HRAS to KD value with respect to KRAS) / HRAS/KRAS (ratio of KD for GDP-bound HRAS wild-type to KD for KRAS): SPR; for HRAS/KRAS (ratio of KD value with respect to HRAS to KD value with respect to KRAS): GDP-bound HRAS wild-type vs GDP-bound KRAS wild-type"}, "[2]": {"target": "GDP-bound NRAS wild-type protein (Homo sapiens, UniProt P01111)", "sequence (P01111 whole entry)": "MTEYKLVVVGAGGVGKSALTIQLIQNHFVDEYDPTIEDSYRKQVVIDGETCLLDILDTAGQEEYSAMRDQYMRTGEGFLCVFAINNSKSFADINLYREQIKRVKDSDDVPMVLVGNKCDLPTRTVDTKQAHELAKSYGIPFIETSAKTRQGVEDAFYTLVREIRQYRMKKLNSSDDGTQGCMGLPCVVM", "experiment": "Binding to NRAS by surface plasmon resonance (SPR), Single Cycle Kinetics", "settings": "for NRAS/KRAS (ratio of KD value with respect to GDP-bound NRAS wild-type protein to KD value with respect to KRAS): class symbols; for NRAS/KRAS (ratio of KD value with respect to NRAS to KD value with respect to KRAS) / NRAS/KRAS (ratio of KD for GDP-bound NRAS wild-type to KD for KRAS): SPR; for NRAS/KRAS (ratio of KD value with respect to NRAS to KD value with respect to KRAS): GDP-bound NRAS wild-type vs GDP-bound KRAS wild-type"}}, "note": "Where a SMILES comes first, the peptide text is derived from it. Bridges are numbered along the chain shown (N, C = ends). [ ]: non-standard residue; d: D form. The star is where a group is joined. hPhe(3-Cl-4-CF3) = N[C@@H](CCc1ccc(C(F)(F)F)c(Cl)c1)C(=O)O; NPrPhe(4-CF3) = CCCN[C@@H](Cc1ccc(C(F)(F)F)cc1)C(=O)O; NMeGly(cPent) = CN[C@H](C(=O)O)C1CCCC1; Hyp = O=C(O)[C@@H]1C[C@@H](O)CN1; NMeD = CN[C@@H](CC(=O)O)C(=O)O; NMeL = CN[C@@H](CC(C)C)C(=O)O; Morpholide = C1CN(*)CCO1; dNMeA = CN[C@H](C)C(=O)O; Ac5c = NC1(C(=O)O)CCCC1; Aze = O=C(O)[C@@H]1CCN1; Ac4c = NC1(C(=O)O)CCC1; Sar = CNCC(=O)O", "data": [{"smiles": "CCC[C@H]1C(=O)N[C@@H]([C@@H](C)CC)C(=O)N(C)CC(=O)N(C)[C@H]2C/C=C\\CCN(C2=O)[C@@H](Cc2ccc(C(F)(F)F)cc2)C(=O)N(C)CC(=O)N[C@@H](CCc2ccc(Cl)c(OC)c2)C(=O)N2C[C@H](OCC)C[C@H]2C(=O)NC2(CC(C)(C)C2)C(=O)N(C)[C@@H](C2CCCC2)C(=O)N(C)[C@H](C(=O)N(C)C)CC(=O)N1C", "note": "[PP2788]", "values": [{"measurement": "HRAS/KRAS (ratio of KD value with respect to GDP-bound HRAS wild-type protein to KD value with respect to KRAS)", "setting": "[1]", "result": "A (a compound having 10 or more and less than 20 is denoted as A)"}, {"measurement": "NRAS/KRAS (ratio of KD value with respect to GDP-bound NRAS wild-type protein to KD value with respect to KRAS)", "setting": "[2]", "result": "A (a compound having 10 or more and less than 20 is denoted as A)"}]}, {"smiles": "C#CC[C@H]1C(=O)N[C@@H]([C@@H](C)CC)C(=O)N(C)CC(=O)N(C)[C@H]2C/C=C\\CCN(C2=O)[C@@H](Cc2ccc(C(F)(F)F)cc2)C(=O)N(C)CC(=O)N[C@@H](CCc2ccc(C(F)(F)F)c(OC)c2)C(=O)N2C[C@@H](C)C[C@H]2C(=O)NC2(CCC2)C(=O)N(C)[C@@H](C2CCCC2)C(=O)N(C)[C@H](C(=O)N(C)CCC)CC(=O)N1C", "note": "[PP2063]", "values": [{"measurement": "HRAS/KRAS (ratio of KD value with respect to HRAS to KD value with respect to KRAS)", "setting": "[1]", "result": "A (a compound having 10 or more and less than 20 is denoted as A)"}, {"measurement": "NRAS/KRAS (ratio of KD value with respect to NRAS to KD value with respect to KRAS)", "setting": "[2]", "result": "AA (a compound having 20 or more is denoted as AA)"}]}, {"smiles": "CCCN1C(=O)CN(C)C(=O)[C@@H]2CCN2C(=O)[C@H]([C@@H](C)CC)NC(=O)[C@H](CC(C)C)N(C)C(=O)C[C@@H](C(=O)N(C)C)NC(=O)[C@H](C2CCCC2)N(C)C(=O)C2(CCC2)NC(=O)[C@@H]2C[C@@H](OCC)CN2C(=O)[C@H](CCc2ccc(C(F)(F)F)c(Cl)c2)NC(=O)CN(C)C(=O)[C@@H]1Cc1ccc(C(F)(F)F)cc1", "note": "[PP0378] ([NMeL]I[Aze][Sar][NPrPhe(4-CF3)][Sar][hPhe(3-Cl-4-CF3)][Hyp](Et)[Ac4c][NMeGly(cPent)]D-NMe2; lactam N-11)", "values": [{"measurement": "HRAS/KRAS (ratio of KD for GDP-bound HRAS wild-type to KD for KRAS)", "setting": "[1]", "result": "B (a compound having 3 or more and less than 10 is denoted as B)"}, {"measurement": "NRAS/KRAS (ratio of KD for GDP-bound NRAS wild-type to KD for KRAS)", "setting": "[2]", "result": "B (a compound having 3 or more and less than 10 is denoted as B)"}]}, {"smiles": "CCCO[C@@H]1C[C@H]2C(=O)NC3(CCC3)C(=O)N(C)[C@@H](C3CCCC3)C(=O)N(C)[C@H](C(=O)N3CCOCC3)CC(=O)N(C)[C@@H](CC(C)C)C(=O)N[C@@H]([C@@H](C)CC)C(=O)N(C)CC(=O)N(C)[C@H]3CCCCN(C3=O)[C@@H](Cc3ccc(C(F)(F)F)cc3)C(=O)N(C)CC(=O)N[C@@H](CCc3cc(F)c(C(F)(F)F)c(F)c3)C(=O)N2C1", "note": "[PP1159]", "values": [{"measurement": "HRAS/KRAS (ratio of KD value with respect to HRAS to KD value with respect to KRAS)", "setting": "[1]; KD ratio", "result": "B (a compound having 3 or more and less than 10 is denoted as B)"}, {"measurement": "NRAS/KRAS (ratio of KD value with respect to NRAS to KD value with respect to KRAS)", "setting": "[2]; KD ratio", "result": "C (A compound having a KD ratio of 0.1 or more and less than 3 is denoted as C)"}]}, {"smiles": "CCCN1C(=O)CN(C)C(=O)CN(C)C(=O)[C@H]([C@@H](C)CC)NC(=O)[C@H](CC(C)C)N(C)C(=O)C[C@@H](C(=O)N2CCOCC2)N(C)C(=O)[C@H](C2CCCC2)N(C)C(=O)C2(CCCC2)NC(=O)[C@@H]2CCCN2C(=O)[C@H](CCc2ccc(C(F)(F)F)c(Cl)c2)NC(=O)[C@@H](C)N(C)C(=O)[C@@H]1Cc1ccc(C(F)(F)F)cc1", "note": "[PP0148] ([NMeL]I[Sar][Sar][NPrPhe(4-CF3)][dNMeA][hPhe(3-Cl-4-CF3)]P[Ac5c][NMeGly(cPent)][NMeD]-Morpholide; lactam N-11)", "values": [{"measurement": "HRAS/KRAS (ratio of KD for GDP-bound HRAS wild-type to KD for KRAS)", "setting": "[1]", "result": "B (a compound having 3 or more and less than 10 is denoted as B)"}, {"measurement": "NRAS/KRAS (ratio of KD for GDP-bound NRAS wild-type to KD for KRAS)", "setting": "[2]", "result": "B (a compound having 3 or more and less than 10 is denoted as B)"}]}, {"smiles": "CCC[C@H]1C(=O)N[C@@H]([C@@H](C)CC)C(=O)N(C2CC2)CC(=O)N(C)[C@H]2C/C=C\\CCN(C2=O)[C@@H](Cc2ccc(C(F)(F)F)cc2)C(=O)N(C)CC(=O)N[C@@H](CCc2cc(F)c(C(F)(F)F)c(F)c2)C(=O)N2C[C@H](OCC)C[C@H]2C(=O)NC2(CC(C)(C)C2)C(=O)N(C)[C@@H](C2CCCC2)C(=O)N(C)[C@H](C(=O)N(C)C)CC(=O)N1C", "note": "[PP2101]", "values": [{"measurement": "HRAS/KRAS (ratio of KD value with respect to HRAS to KD value with respect to KRAS)", "setting": "[1]", "result": "B (a compound having 3 or more and less than 10 is denoted as B)"}, {"measurement": "NRAS/KRAS (ratio of KD value with respect to NRAS to KD value with respect to KRAS)", "setting": "[2]", "result": "A (a compound having 10 or more and less than 20 is denoted as A)"}]}, {"smiles": "CC[C@H](C)[C@@H]1NC(=O)[C@@H]2CCC/C=C/c3ccc(cc3)C[C@@H](C(=O)N(C)CC(=O)N[C@@H](CCc3ccc(Cl)c(Cl)c3)C(=O)N3C[C@H](OC(C)C)C[C@H]3C(=O)NC3(CC(C)(C)C3)C(=O)N(C)[C@@H](C3CCCC3)C(=O)N(C)[C@H](C(=O)N(C)CC)CC(=O)N2C)N2CC/C=C\\C[C@@H](C2=O)N(C)C(=O)CN(C)C1=O", "note": "[PP2595]", "values": [{"measurement": "HRAS/KRAS (ratio of KD value with respect to GDP-bound HRAS wild-type protein to KD value with respect to KRAS)", "setting": "[1]", "result": "B (a compound having 3 or more and less than 10 is denoted as B)"}, {"measurement": "NRAS/KRAS (ratio of KD value with respect to GDP-bound NRAS wild-type protein to KD value with respect to KRAS)", "setting": "[2]", "result": "A (a compound having 10 or more and less than 20 is denoted as A)"}]}]}
